Measurements as given in patent US20080132412A1, “7-Amino-6-Heteroaryl-1,2,4-Triazolo[1,5-A]Pyrimidines and Their Use for Controlling Harmful Fungi” (BASF Aktiengesellschaft, priority 2004, published 2008).

Test system: Septoria tritici
Test: Speckled leaf blotch pathogen Septoria tritici in the microtiter test
Format: cell-based
Settings: 125 ppm, microtiter plate, absorption at 405 nm on day 7 after inoculation
Experimental: The stock solution is pipetted into a microtiter plate (MTP) and diluted to the stated active compound concentration using an aqueous, malt-based nutrient medium for fungi. An aqueous spore suspension of Septoria tritici was then added. The plates were placed in a water vapor-saturated chamber at temperatures of 18° C. Using an absorption photometer, the MTPs were measured at 405 nm on day 7 after the inoculation. The parameters measured were compared to the growth of the active compound-free control variant and the fungus- and active compound-free blank value to determine the relative growth in % of the pathogens in the individual active compounds. The relative growth at 125 ppm of compound 1 was 0%.

## Cc1nc2ncnn2c(N2CCC(C)CC2)c1-c1ncncc1Cl [compound 1, 6-(5-chloropyrimidin-4-yl)-5-methyl-7-(4-methylpiperidin-1-yl)-[1,2,4]triazolo[1,5-a]pyrimidine]
  relative growth: 0%
